From publication PMC11520566, “Discovery of pyrazole-based analogs as CDK2 inhibitors with apoptotic-inducing activity: design, synthesis and molecular dynamics study” (RSC Advances, 2024)

Experiments:
Format in all cases: cell-based, human
HOP-92 = experiment: NCI 60 five dose assay, Non-small cell lung cancer
NCI-H226 = experiment: NCI 60 five dose assay, Non-small cell lung cancer
HT29 = experiment: NCI 60 five dose assay, Colon cancer
KM12 = experiment: NCI 60 five dose assay, Colon cancer
MDA-MB-435 = experiment: NCI 60 five dose assay, Melanoma
SK-MEL-28 = experiment: NCI 60 five dose assay, Melanoma
IGROV1 = experiment: NCI 60 five dose assay, Ovarian cancer
OVCAR-8 = experiment: NCI 60 five dose assay, Ovarian cancer
SK-OV-3 = experiment: NCI 60 five dose assay, Ovarian cancer
A498 = experiment: NCI 60 five dose assay, Renal cancer
TK-10 = experiment: NCI 60 five dose assay, Renal cancer
UO-31 = experiment: NCI 60 five dose assay, Renal cancer
MCF7 = experiment: NCI 60 five dose assay, Breast cancer
HS 578T = experiment: NCI 60 five dose assay, Breast cancer
UACC-257 = experiment: NCI 60 single dose screen, Melanoma; conditions: single dose 10 μM
Description: (§1) The newly synthesized pyrazoles 2a–g, 7a–d, 8a and b, 9, and 10 were submitted to the National Cancer Institute (NCI) Developmental Therapeutics Program (http://www.dtp.nci.nih.gov) for assessment of their potential antiproliferative activity against a panel of NCI 60 cancer cell lines. All compounds were approved for screening against the approved 60 cancer cell lines at a single dose of 10 μM. The human cancer cell lines were derived from 9 variant cancer types including leukemia, melanoma, lung, colon, CNS, ovarian, renal, prostate and breast cancers. The results are presented as percentage of growth inhibition (GI%) of the screened compounds against the full panel of cell lines.
(§2) Under sterile conditions, the cell lines were grown in RPMI 1640 media (Gibco, NY, USA) supplemented with 10% fetal bovine serum (Biocell, CA, USA), and […] cell/mL was used to test the growth inhibition activity of the synthesized compounds. The compounds with concentrations ranging from 0.01 to 100 μM were prepared in phosphate buffer saline. Each compound was initially solubilized in dimethyl sulfoxide (DMSO); however, each final dilution contained less than 1% DMSO. Solutions of different concentrations (0.2 mL) were pipetted into the separate well of a microtiter tray in duplicate. Cell culture (1.8 mL) containing a cell population of […] cells per mL was pipetted into each well. Controls, containing only phosphate buffer saline and DMSO at identical dilutions, were also prepared in the same manner. These cultures were incubated in a humidified incubator at 37 °C. The incubator was supplied with 5% CO2 atmosphere. After 48 h, the cells in each well were diluted 10 times with saline and counted using a Coulter counter. The counts were corrected for the dilution.[34]

NCI-H23 = experiment: NCI 60 single dose screen, Non-small cell lung cancer; conditions: single dose 10 μM
Description: as §1, §2

NCI-H322M = experiment: as above; conditions: single dose 10 μM
Description: as §1, §2

NCI-H460 = experiment: as above; conditions: single dose 10 μM
Description: as §1, §2

[1] = Homo sapiens, read-out: LC50 (the source's name)

CC(=NNc1ccc(S(N)(=O)=O)cc1)c1ccc(NN=C2C(=O)NN=C2Nc2ccccc2)cc1 [Compound 4, 4-(2-(1-(4-(2-(5-oxo-3-(phenylamino)-1,5-dihydro-4H-pyrazol-4-ylidene)hydrazinyl)phenyl)ethylidene)hydrazinyl)benzene sulfonamide]
GI50 (HOP-92; Homo sapiens): 1.3 µM | CC50 (HOP-92; [1]): 30.7 µM | Percent Growth (HOP-92; Log10 Concentration -4.0 Molar): -89% | Percent Growth (HOP-92; Log10 Concentration -5.0 Molar): -13% | Percent Growth (HOP-92; Log10 Concentration -6.0 Molar): 58% | Percent Growth (HOP-92; Log10 Concentration -7.0 Molar): 81% | Percent Growth (HOP-92; Log10 Concentration -8.0 Molar): 74% | GI50 (NCI-H226; Homo sapiens): 3.31 µM | CC50 (NCI-H226; [1]): 35.1 µM | Percent Growth (NCI-H226; Log10 Concentration -4.0 Molar): -100% | Percent Growth (NCI-H226; Log10 Concentration -5.0 Molar): 10% | Percent Growth (NCI-H226; Log10 Concentration -6.0 Molar): 93% | Percent Growth (NCI-H226; Log10 Concentration -7.0 Molar): 102% | Percent Growth (NCI-H226; Log10 Concentration -8.0 Molar): 96% | GI50 (HT29; Homo sapiens, HT-29): 3.58 µM | CC50 (HT29; Homo sapiens, HT-29, read-out: LC50 (the source's name)): 34 µM | Percent Growth (HT29; Log10 Concentration -4.0 Molar): -100% | Percent Growth (HT29; Log10 Concentration -5.0 Molar): 7% | Percent Growth (HT29; Log10 Concentration -6.0 Molar): 104% | Percent Growth (HT29; Log10 Concentration -7.0 Molar): 117% | Percent Growth (HT29; Log10 Concentration -8.0 Molar): 100% | GI50 (KM12; Homo sapiens): 2.66 µM | CC50 (KM12; [1]): 29.9 µM | Percent Growth (KM12; Log10 Concentration -4.0 Molar): -100% | Percent Growth (KM12; Log10 Concentration -5.0 Molar): -5% | Percent Growth (KM12; Log10 Concentration -6.0 Molar): 90% | Percent Growth (KM12; Log10 Concentration -7.0 Molar): 101% | Percent Growth (KM12; Log10 Concentration -8.0 Molar): 98% | GI50 (MDA-MB-435; Homo sapiens): 2.07 µM | CC50 (MDA-MB-435; [1]): 17.8 µM | Percent Growth (MDA-MB-435; Log10 Concentration -4.0 Molar): -83% | Percent Growth (MDA-MB-435; Log10 Concentration -5.0 Molar): -39% | Percent Growth (MDA-MB-435; Log10 Concentration -6.0 Molar): 91% | Percent Growth (MDA-MB-435; Log10 Concentration -7.0 Molar): 98% | Percent Growth (MDA-MB-435; Log10 Concentration -8.0 Molar): 90% | GI50 (SK-MEL-28; Homo sapiens): 1.91 µM | CC50 (SK-MEL-28; [1]): 6.99 µM | Percent Growth (SK-MEL-28; Log10 Concentration -4.0 Molar): -93% | Percent Growth (SK-MEL-28; Log10 Concentration -5.0 Molar): -78% | Percent Growth (SK-MEL-28; Log10 Concentration -6.0 Molar): 100% | Percent Growth (SK-MEL-28; Log10 Concentration -7.0 Molar): 109% | Percent Growth (SK-MEL-28; Log10 Concentration -8.0 Molar): 96% | GI50 (IGROV1; Homo sapiens, IGROV-1): 4.5 µM | CC50 (IGROV1; Homo sapiens, IGROV-1, read-out: LC50 (the source's name)): 43.2 µM | Percent Growth (IGROV1; Log10 Concentration -4.0 Molar): -97% | Percent Growth (IGROV1; Log10 Concentration -5.0 Molar): 32% | Percent Growth (IGROV1; Log10 Concentration -6.0 Molar): 85% | Percent Growth (IGROV1; Log10 Concentration -7.0 Molar): 94% | Percent Growth (IGROV1; Log10 Concentration -8.0 Molar): 90% | GI50 (OVCAR-8; Homo sapiens): 2.59 µM | CC50 (OVCAR-8; [1]): 29 µM | Percent Growth (OVCAR-8; Log10 Concentration -4.0 Molar): -95% | Percent Growth (OVCAR-8; Log10 Concentration -5.0 Molar): -11% | Percent Growth (OVCAR-8; Log10 Concentration -6.0 Molar): 93% | Percent Growth (OVCAR-8; Log10 Concentration -7.0 Molar): 105% | Percent Growth (OVCAR-8; Log10 Concentration -8.0 Molar): 97% | GI50 (SK-OV-3; Homo sapiens): 2.34 µM | CC50 (SK-OV-3; [1]): 23.7 µM | Percent Growth (SK-OV-3; Log10 Concentration -4.0 Molar): -98% | Percent Growth (SK-OV-3; Log10 Concentration -5.0 Molar): -21% | Percent Growth (SK-OV-3; Log10 Concentration -6.0 Molar): 92% | Percent Growth (SK-OV-3; Log10 Concentration -7.0 Molar): 102% | Percent Growth (SK-OV-3; Log10 Concentration -8.0 Molar): 89% | GI50 (A498; Homo sapiens): 11.4 µM | CC50 (A498; [1]): 94.7 µM | Percent Growth (A498; Log10 Concentration -4.0 Molar): -53% | Percent Growth (A498; Log10 Concentration -5.0 Molar): 56% | Percent Growth (A498; Log10 Concentration -6.0 Molar): 87% | Percent Growth (A498; Log10 Concentration -7.0 Molar): 87% | Percent Growth (A498; Log10 Concentration -8.0 Molar): 77% | GI50 (TK-10; Homo sapiens): 18.6 µM | CC50 (TK-10; [1]): > 100 µM | Percent Growth (TK-10; Log10 Concentration -4.0 Molar): -25% | Percent Growth (TK-10; Log10 Concentration -5.0 Molar): 78% | Percent Growth (TK-10; Log10 Concentration -6.0 Molar): 101% | Percent Growth (TK-10; Log10 Concentration -7.0 Molar): 102% | Percent Growth (TK-10; Log10 Concentration -8.0 Molar): 97% | GI50 (UO-31; Homo sapiens): 19.4 µM | CC50 (UO-31; [1]): > 100 µM | Percent Growth (UO-31; Log10 Concentration -4.0 Molar): 2% | Percent Growth (UO-31; Log10 Concentration -5.0 Molar): 69% | Percent Growth (UO-31; Log10 Concentration -6.0 Molar): 81% | Percent Growth (UO-31; Log10 Concentration -7.0 Molar): 89% | Percent Growth (UO-31; Log10 Concentration -8.0 Molar): 84% | GI50 (MCF7; Homo sapiens): 2.4 µM | CC50 (MCF7; [1]): 27.4 µM | Percent Growth (MCF7; Log10 Concentration -4.0 Molar): -97% | Percent Growth (MCF7; Log10 Concentration -5.0 Molar): -14% | Percent Growth (MCF7; Log10 Concentration -6.0 Molar): 89% | Percent Growth (MCF7; Log10 Concentration -7.0 Molar): 93% | Percent Growth (MCF7; Log10 Concentration -8.0 Molar): 93% | GI50 (HS 578T; Homo sapiens): 3.31 µM | CC50 (HS 578T; [1]): > 100 µM | Percent Growth (HS 578T; Log10 Concentration -4.0 Molar): -28% | Percent Growth (HS 578T; Log10 Concentration -5.0 Molar): 11% | Percent Growth (HS 578T; Log10 Concentration -6.0 Molar): 92% | Percent Growth (HS 578T; Log10 Concentration -7.0 Molar): 93% | Percent Growth (HS 578T; Log10 Concentration -8.0 Molar): 85% | GI% (UACC-257): 94.37% | GI% (NCI-H23): 99.80% | GI% (NCI-H322M): 90.78% | GI% (NCI-H460): 91.13%
